The test system of one assay is Erisiphe polygoni. Kind of assay: Bean Powdery Mildew (seedling bean plants). In kind it is in vivo. The conditions noted are these: 240 h; 250 ppm spray; bean seedlings, inoculated 1 day later; relative to untreated check; read-out: % Control BPM (Bean Powdery Mildew). The procedure:
The compounds of the invention were tested for the control of the Bean Powdery Mildew organism Erisiphe polygoni. Seedling bean plants were sprayed with a 250 ppm solution of the test compound in acetone, water and a nonionic emulsifier. The sprayed plants were then inoculated 1 day later with organism. The plants were maintained for 10 days at temperatures of 68° F. at night with daytime temperatures of 72° to 80° F.; relative humidity was maintained at 40% to 60%. The percent disease control provided by a given test compound was based on the percent disease reduction relative to the untreated check plants.

The subject of the next assay is Pythium ultimum. The assay is described as follows: Mycelial Inhibition, Pythium ultimum. It counts as cell-based. To be noted: Standard DIFOLATAN; 500 ppm, 25° C., 24 hours; 0 = more than 1.6 micrograms/cm^2 required for 99% control. Here is the method:
(§1) The compounds of the present invention were evaluated for in-vitro fungicidal effectiveness by means of a Mycelial Inhibition test. This test is designed to measure the fungitoxic activity of fungicidal chemicals in terms of their degree of inhibition of mycelium growth. Each compound to be tested was dissolved in acetone to 500 ppm concentration. Paper strips were infused with the particular mycelium growth by covering the paper with a potato dextrose broth culture of mycelial suspension. The papers were then placed on potato dextrose agar plates and sprayed by means of a microsprayer with the fungicidal solution. The treated paper strips were incubated at 25° C. and the data is taken after 24 hours. Fungicidal activities are measured by a zone of inhibited mycelial growth from the center of the paper strip. The effectiveness of the compounds tested for fungicidal activity is reported in Table II (a) for those compounds which were effective in inhibiting mycelial growth.
(§2) The activity is reported in terms of [formula]
(§3) When more than 1.6 micrograms/cm^2 for 99% control of the fungus for the test compound is required, the activity is reported as 0.

For another assay, the system named is Rhizoctania solani. Kind of assay: Mycelial Inhibition, Rhizoctania solani. It counts as cell-based. To be noted: Standard DIFOLATAN; 500 ppm, 25° C., 24 hours; 0 = more than 1.6 micrograms/cm^2 required for 99% control. Here is the method:
as §1, §2, §3

Another assay relates to Plasmopara viticola. Kind of assay: Grape Downy Mildew Control (detached grape leaves). It counts as in vivo. The conditions noted are these: in Vitis vinifera, 250 ppm spray, disease reduction relative to untreated check, read-out: % Control GDM (Grape Downy Mildew). Here is the method:
Grape Downy Mildew Control
The compounds of the invention were tested for the control of the Grape Downy Mildew Control organism Plasmopara viticola. Detached leaves, between 70 and 85 mm in diameter, of 7-week old Vitis vinifera cultivar Emperor grape seedlings were used as hosts. The leaves were sprayed with a 250 ppm solution of the test compound in acetone. The sprayed leaves were dried, inoculated with a spore suspension of the organism, placed in a humid environmental chamber and incubated at 66° to 68° F. and about 100% relative humidity. After incubation for 2 days, the plants were then held in a greenhouse 7 to 9 days; then the amount of disease control was determined. The percent disease control provided by a given test compound was based on the percent disease reduction relative to untreated check plants.

The test system of another assay is Botrytis cinerea. The assay is described as follows: Mycelial Inhibition, Botrytis cinerea. The conditions noted are these: Standard DIFOLATAN; 500 ppm, 25° C., 24 hours; 0 = more than 1.6 micrograms/cm^2 required for 99% control. It counts as cell-based. Here is the method:
as §1, §2, §3

Assay [1] relates to Alternaria solani conidia. Kind of assay: Tomato Early Blight (tomato seedlings). In kind it is in vivo. To be noted: 250 ppm spray, inoculated 1 day later, relative to untreated check. Here is the method:
Compounds of the invention were tested for the control of the Tomato Early Blight organism, Alternaria solani conidia. Tomato (variety Bonny Best) seedlings of 6 to 7 weeks old were used. The tomato plants were sprayed with a 250 ppm solution of the test compound in an acetone-and-water solution containing a small amount of a nonionic emulsifier. The sprayed plants were inoculated 1 day later with the organism, placed in the environmental chamber and incubated at 66° to 68° F. and 100% relative humidity for 24 hours. Following the incubation, the plants were maintained in a greenhouse for about 12 days. Percent diseases control was based on the percent disease development on untreated check plants.

A further assay deals with Phytophthora infestans. Kind of assay: whole plant or invertebrate. In kind it is in vivo. The conditions noted are these: in Solanum lycopersicum, 168 h, read-out: % Control TLB (Tomato Late Blight).
In the next assay the test system is Uronyces phaseoli tipica. Kind of assay: Leaf Rust / Bean Rust (pinto beans). It counts as in vivo. The conditions noted are these: 336 h, 250 ppm spray, about 14 days, relative to untreated check, read-out: % Control BR (Bean Rust). The procedure:
The Leaf Rust test was made using pinto beans. The pathogen was Uronyces phaseoli tipica. The pinto bean plants were sprayed with a 250 ppm solution of the test compound in an acetone-water mixture containing a nonionic emulsifier. The treated plants were inoculated thereafter with the pathogen and then incubated in an environmental chamber for approximately 20 hours at 100% relative humidity and a temperature of 68° to 70° F. The plants were then removed from the chamber, allowed to dry, and then maintained in a greenhouse at a 60% to 80% relative humidity. The rate of infection on the leaves was made after about 14 days. The percent disease control provided by a given test compound was based on the percent disease reduction relative to untreated check plants.

In a further assay the test system is Septoria apii. It counts as in vivo. To be noted: 250 ppm spray; celery plants; relative to untreated check.
The next assay has as its system Piricularia oryzae. It counts as in vivo. The conditions noted are these: 625 ppm spray; rice seedlings, inoculated 1 day later; relative to untreated check.

`Cc1cc(=O)on1C(=O)c1ccc([N+](=O)[O-])cc1` [Compound 1, 3-methyl-2-(4'-nitrobenzoyl)-3-isoxazolin-5-one]: the pest or weed control at 250 ppm in the assay on Erisiphe polygoni amounted to 0%; with Plasmopara viticola it was 21%; in the assay with Phytophthora infestans, 0%; with Uronyces phaseoli tipica, 0%. Moreover, the “Mycelial inhibition, Pythium (% Standard)” value with Pythium ultimum is 0 % Standard. Further, the “Mycelial inhibition, Rhizoc. (% Standard)” value in the assay on Rhizoctania solani came to 0 % Standard. In addition, in the assay on Botrytis cinerea, the “Mycelial inhibition, Botrytis (% Standard)” value was found to be 0 % Standard. Further, in [1], the “% Control TEB (Tomato Early Blight)” value came out at 0%.
Regarding `Cc1cc(=O)on1C(=O)c1ccc(Cl)cc1Cl` [Compound 2, 3-methyl-2-(2',4'-dichlorobenzoyl)-3-isoxazolin-5-one], the “% Control CLB (Celery Late Blight)” value in the assay on Septoria apii was determined as 99%. Further, the pest or weed control at 250 ppm in the assay with Erisiphe polygoni was determined as 21%; in the assay on Plasmopara viticola, 14%; with Phytophthora infestans, 97%; with Uronyces phaseoli tipica it was 0%. For the same compound, the “Mycelial inhibition, Pythium (% Standard)” value with Pythium ultimum was 0 % Standard. In addition, in the assay on Rhizoctania solani, the “Mycelial inhibition, Rhizoc. (% Standard)” value is given as 0 % Standard. The “Mycelial inhibition, Botrytis (% Standard)” value in the assay on Botrytis cinerea turned out to be 34 % Standard. The “% Control TEB (Tomato Early Blight)” value in [1] worked out at 92%.
Take `CCCc1cc(=O)on1C(=O)c1ccc(Cl)cc1Cl` [Compound 3, 3-n-propyl-2-(2',4'-dichlorobenzoyl)-3-isoxazolin-5-one]: in the assay on Septoria apii, the “% Control CLB (Celery Late Blight)” value is 0%. For the same compound, the pest or weed control at 250 ppm in the assay on Erisiphe polygoni is 0%; with Plasmopara viticola, 0%; in the assay on Phytophthora infestans, 35%; in the assay on Uronyces phaseoli tipica, 0%. For the same compound, the “Mycelial inhibition, Rhizoc. (% Standard)” value in the assay with Rhizoctania solani is 0 % Standard. Also, the “Mycelial inhibition, Botrytis (% Standard)” value in the assay with Botrytis cinerea was 0 % Standard. Moreover, in the assay with Piricularia oryzae, the “% Control Rice Blast” value is 44%.
Turning to `Cc1cc(=O)on1C(=O)c1ccccc1` [Compound 4], the “% Control CLB (Celery Late Blight)” value in the assay on Septoria apii turned out to be 0%. Further, the pest or weed control at 250 ppm in the assay with Erisiphe polygoni was found to be 0%; with Plasmopara viticola, 6%; in the assay on Phytophthora infestans, 50%; in the assay with Uronyces phaseoli tipica, 0%. Besides, the “Mycelial inhibition, Rhizoc. (% Standard)” value with Rhizoctania solani worked out at 0 % Standard. The “Mycelial inhibition, Botrytis (% Standard)” value in the assay with Botrytis cinerea was 0 % Standard. In addition, the “% Control Rice Blast” value in the assay with Piricularia oryzae came to 0%.
Consider `CC(C)c1cc(=O)on1C(=O)c1ccc(Cl)cc1Cl` [Compound 5], for which the “% Control CLB (Celery Late Blight)” value in the assay on Septoria apii turned out to be 0%. Besides, the pest or weed control at 250 ppm in the assay with Erisiphe polygoni amounted to 0%; in the assay with Plasmopara viticola, 3%; in the assay on Phytophthora infestans, 69%; with Uronyces phaseoli tipica, 0%. Further, the “Mycelial inhibition, Rhizoc. (% Standard)” value with Rhizoctania solani was found to be 23 % Standard. Further, in the assay on Botrytis cinerea, the “Mycelial inhibition, Botrytis (% Standard)” value was determined as 0 % Standard. The “% Control Rice Blast” value in the assay with Piricularia oryzae came out at 83%.
On to `Cc1cc(=O)on1C(=O)c1ccc(Cl)cc1` [Compound 6], for which, in the assay with Septoria apii, the “% Control CLB (Celery Late Blight)” value is recorded as 0%. Moreover, the pest or weed control at 250 ppm in the assay on Erisiphe polygoni was found to be 0%; in the assay on Plasmopara viticola, 16%; in the assay on Phytophthora infestans it was 50%; with Uronyces phaseoli tipica, 0%. Also, the “Mycelial inhibition, Pythium (% Standard)” value in the assay on Pythium ultimum was determined as 12 % Standard. In addition, the “Mycelial inhibition, Rhizoc. (% Standard)” value in the assay on Rhizoctania solani stood at 33 % Standard. The “Mycelial inhibition, Botrytis (% Standard)” value in the assay with Botrytis cinerea amounted to 6 % Standard. In assay [1], the “% Control TEB (Tomato Early Blight)” value is on record as 0%. In addition, in the assay with Piricularia oryzae, the “% Control Rice Blast” value was determined as 0%.
Regarding `Cc1cc(=O)on1C(=O)c1ccc([N+](=O)[O-])cc1Cl` [Compound 7], the “% Control CLB (Celery Late Blight)” value in the assay with Septoria apii is 44%. The pest or weed control at 250 ppm was 0% in the assay on Erisiphe polygoni, 19% with Plasmopara viticola, 31% in the assay with Phytophthora infestans and 0% with Uronyces phaseoli tipica. Further, the “Mycelial inhibition, Pythium (% Standard)” value with Pythium ultimum turned out to be 0 % Standard. Also, in the assay with Rhizoctania solani, the “Mycelial inhibition, Rhizoc. (% Standard)” value stood at 0 % Standard. For the same compound, the “Mycelial inhibition, Botrytis (% Standard)” value with Botrytis cinerea was found to be 0 % Standard. Besides, the “% Control TEB (Tomato Early Blight)” value in assay [1] was 0%. Also, the “% Control Rice Blast” value in the assay on Piricularia oryzae turned out to be 50%.
With `Cc1cc(=O)on1C(=O)c1ccc(Cl)cc1[N+](=O)[O-]` [Compound 8], in the assay on Septoria apii, the “% Control CLB (Celery Late Blight)” value is given as 11%. The pest or weed control at 250 ppm was 0% with Erisiphe polygoni, 6% in the assay on Plasmopara viticola, 56% with Phytophthora infestans and 0% in the assay on Uronyces phaseoli tipica. In the assay with Pythium ultimum, the “Mycelial inhibition, Pythium (% Standard)” value came to 0 % Standard. The “Mycelial inhibition, Rhizoc. (% Standard)” value in the assay with Rhizoctania solani came out at 0 % Standard. For the same compound, in the assay on Botrytis cinerea, the “Mycelial inhibition, Botrytis (% Standard)” value was determined as 15 % Standard. Besides, the “% Control TEB (Tomato Early Blight)” value in assay [1] turned out to be 56%. For the same compound, the “% Control Rice Blast” value in the assay on Piricularia oryzae is 0%.

For the origin of these results see US4504486A (priority 1982, dated 1985).
